Test results reported in patent US12357642B2, “Hazardous agent injection system” (Antares Pharma, Inc., priority 2009, dated 2025).
“And” between values parts separate entries of the source, which are not always exact repeats. Equal entries are not always repeated. “Also recorded” adds a separate entry of the source. Where two headings read alike, the source gives them in different places.

Columns and labels:
[1] = cited from earlier work; for average mean serum concentration: pediatric patients with juvenile rheumatoid arthritis
[2] = oral, 5 mg/m^2 per week increased to 10 mg/m^2 per week, 46 patients; cited from earlier work
[3] = cited from earlier work
[4] = cited from earlier work; remark: listed apart in the source
[5] = 15 mg, 10 rheumatoid arthritis patients, cited from earlier work
[6] = test system: patients with active rheumatoid arthritis; conditions: cited from earlier work; for median Disease Activity Score (DAS28) / number of swollen joints / number of tender joints / patients with an ACR20 response: 24 weeks; for patients achieving ACR20: starting dose 15 mg per week; for median Health Assessment Questionnaire (HAQ) score / patients achieving an ACR70 response: week 24; for time to achieve an ACR20 response: same subgroup (n=98); for ACR20 responders: subgroup >1 year between diagnosis and study entry with prior antirheumatic compounds or steroids (n=98)
[7] = test system: patients with rheumatoid arthritis; conditions: cited from earlier work
[8] = test system: rheumatoid arthritis patients; conditions: cited from earlier work
[9] = Pharmacokinetics of methotrexate in minipig plasma after subcutaneous injection with autoinjector or needle/syringe
[10] = Female, Auto injector, SC, Dose Level 12.5, individual animals
[11] = Female, Syringe, SC, Dose Level 12.5, individual animals
[12] = Male, Auto injector, SC, Dose Level 12.5, individual animals
[13] = Male, Syringe, SC, Dose Level 12.5, individual animals

Q: Which “initial average distribution volume” value ([1]; after intravenous administration) does the source give for `CN(Cc1cnc2nc(N)nc(N)c2n1)c1ccc(C(=O)N[C@@H](CCC(=O)O)C(=O)O)cc1` [Methotrexate, L-(+)—N-[p-[[(2,4-Diamino-6-pteridinyl)methyl]methylamino]-benzoyl]glutamic acid] here?
A: The value was “about 0.18 L/kg”.

Q: What about the “absorption from parenteral routes of injection” value ([1]; human, in vivo) of the same molecule?
A: Its value is “completely absorbed”.

Q: And the “average mean serum concentration” value ([1]; at about 1 hour)?
A: The value was “about 0.59 μM”.

Q: And the “average mean serum concentration” value ([1]; at about 3 hours)?
A: Its value is “about 0.29 μM”.

Q: And the “effect of higher doses” value [2]?
A: The value was “dose-related efficacy response together with a trend toward increased toxicity”.

Q: And the “average DAS28” value ([3]; after switch from oral to intramuscular administration at 15 mg per week)?
A: Its value is 5.2.

Q: What about the “average DAS28” value ([3]; before switch from oral to intramuscular administration at 15 mg per week) of the same molecule?
A: Its value is 5.6.

Q: What about the “disease improvement compared to placebo” value ([3]; intramuscular dosage escalated 15 to 45 mg per week, 54 patients who did not achieve DAS28<3.2) of the same molecule?
A: The value was “no difference in disease improvement”.

Q: And the “peak serum concentrations and bioavailability, intramuscular versus subcutaneous” value ([4]; 12.5 mg to 25 mg per week)?
A: The value was “similar”.

Q: And the “Tmax after subcutaneous versus intramuscular administration” value ([4]; in 4 out of 5 patients tested)?
A: The value was “faster”.

Q: What about the oral bioavailability ([5]; fasting) of the same molecule?
A: Its oral bioavailability is 67%.

Q: And the oral bioavailability ([5]; fed)?
A: The oral bioavailability was 63%.

Q: What about the “patients classified as ACR20 non-responders” value ([6]; 16 weeks, of the total tested (52 patients)) of the same molecule?
A: The value was 14%.

Q: And the “median Disease Activity Score (DAS28)” value ([6]; oral)?
A: The value was 3.7.

Q: And the “number of swollen joints” value ([6]; oral)?
A: The value was 3.

Q: And the “number of tender joints” value ([6]; oral)?
A: Its value is 6.

Q: What about the “patients with an ACR20 response” value ([6]; oral) of the same molecule?
A: Its value is 70%.

Q: And the “patients achieving ACR20” value ([6]; oral, 16 weeks)?
A: The value was 77%.

Q: What about the “median Health Assessment Questionnaire (HAQ) score” value ([6]; oral) of the same molecule?
A: The value was 0.5.

Q: What about the “patients achieving an ACR70 response” value ([6]; oral) of the same molecule?
A: Its value is 33%.

Q: And the “time to achieve an ACR20 response” value ([6]; oral)?
A: Its value is 6 weeks.

Q: What about the ACR20 responders ([6]; oral) of the same molecule?
A: The ACR20 responders was 63%.

Q: What about the “rate of adverse events, subcutaneous versus oral” value ([6]; same dose) of the same molecule?
A: The value was “not accompanied by a significantly higher rate of adverse events”.

Q: What about the “further non-responders with positive ACR20 response after dose increase” value ([6]; subcutaneous dosage increased from 15 mg to 20 mg) of the same molecule?
A: The value was 23%.

Q: And the “median Disease Activity Score (DAS28)” value ([6]; subcutaneous)?
A: Its value is 3.3.

Q: What about the “number of swollen joints” value ([6]; subcutaneous) of the same molecule?
A: Its value is 2.

Q: What about the “number of tender joints” value ([6]; subcutaneous) of the same molecule?
A: Its value is 3.5.

Q: What about the “patients with an ACR20 response” value ([6]; subcutaneous) of the same molecule?
A: The value was 78%.

Q: And the “patients achieving ACR20” value ([6]; subcutaneous, 16 weeks)?
A: The value was 85%.

Q: What about the “median Health Assessment Questionnaire (HAQ) score” value ([6]; subcutaneous) of the same molecule?
A: The value was 0.4.

Q: What about the “patients achieving an ACR70 response” value ([6]; subcutaneous) of the same molecule?
A: Its value is 41%.

Q: And the “time to achieve an ACR20 response” value ([6]; subcutaneous)?
A: Its value is 4 weeks.

Q: And the ACR20 responders ([6]; subcutaneous)?
A: Its ACR20 responders is 89%.

Q: What about the “non-responders with positive ACR20 response after switch” value ([6]; switched from 15 mg oral to 15 mg subcutaneous) of the same molecule?
A: Its value is 30%.

Q: And the patients reporting nausea ([7]; after switching to oral)?
A: The patients reporting nausea was 48%.

Q: And the patients reporting nausea ([7]; switched back to intramuscular)?
A: The patients reporting nausea was 40%.

Q: And the “patients judged to have moderate or marked improvement” value ([8]; 10 mg to 15 mg intramuscular once a week, 78 rheumatoid arthritis patients)?
A: Its value is “Eighty-two”.

Q: And the “patients who deteriorated after switch to oral and improved after switching back to intramuscular” value ([8]; of the 48 patients who switched to oral)?
A: The value was 10 patients.

Q: What about the “Methotrexate in samples collected prior to dosing” value ([9]; Female, autoinjector, Day 8, attributed to carryover of the instrument, LLOQ=0.2 ng/mL) of the same molecule?
A: Its value is 3.19 ng/mL.

Q: What about the “AUC(0-mx)” value [9, 10] of the same molecule?
A: The value was 2501 ng·mL·h and 3172 ng·mL·h.

Q: What about the “AUC(0-t)” value [9, 10] of the same molecule?
A: Its value is 2498 ng·mL·h and 3169 ng·mL·h.

Q: And the T½ [9, 10]?
A: The T½ was 3.91 h and 3.95 h.

Q: What about the “AUC(0-t)” value ([9]; Female, Autoinjector, Day 8, individual animals) of the same molecule?
A: The value was 3169 ng·h/mL.

Q: And the “AUC(0-t)” value ([9]; Female, Needle/Syringe, Day 1, individual animals)?
A: Its value is 2669 ng·h/mL and 1831 ng·h/mL.

Q: What about the “AUC(0-mx)” value [9, 11] of the same molecule?
A: Its value is 2675 ng·mL·h and 1832 ng·mL·h.

Q: What about the “AUC(0-t)” value [9, 11] of the same molecule?
A: The value was 2669 ng·mL·h and 1831 ng·mL·h.

Q: What about the Tmax [9, 11] of the same molecule?
A: The Tmax was 0.50 h.

Q: And the T½ [9, 11]?
A: Its T½ is 4.90 h and 2.53 h.

Q: And the “AUC(0-mx)” value [9, 12]?
A: The value was 1903 ng·mL·h and 1407 ng·mL·h.

Q: And the “AUC(0-t)” value [9, 12]?
A: The value was 1901 ng·mL·h and 1405 ng·mL·h.

Q: What about the T½ [9, 12] of the same molecule?
A: The T½ was 2.00 h and 1.81 h.

Q: And the “AUC(0-t)” value ([9]; Male, Autoinjector, Day 1, individual animals)?
A: Its value is 1405 ng·h/mL and 1162 ng·h/mL.

Q: And the “AUC(0-t)” value ([9]; Male, Needle/Syringe, Day 8, individual animals)?
A: Its value is 2016 ng·h/mL and 1324 ng·h/mL.

Q: What about the “AUC(0-t)” value [9, 13] of the same molecule?
A: The value was 2464 ng·mL·h and 2016 ng·mL·h.

Q: What about the Tmax [9, 13] of the same molecule?
A: The Tmax was 0.50 h.

Q: What about the “difference in exposure / PK parameters between males and females” value ([9]; SC 12.5 mg, both devices) of the same molecule?
A: The value was “no marked difference; also recorded: no marked sex-related differences”.

Q: And the “exposure with autoinjector compared with needle/syringe” value ([9]; SC 12.5 mg, male and female minipigs)?
A: Its value is “very similar; also recorded: comparable”.

Q: What about the “time at which maximal plasma concentrations were generally observed” value ([9]; both devices, SC 12.5 mg, first collection time point) of the same molecule?
A: Its value is 0.25 h.

Q: What about the half-life ([9]; both, Gottingen, minipig, plasma, subcutaneous, 12.5 mg, terminal elimination half-life, range over animals and both devices, where it could be estimated) of the same molecule?
A: The half-life was 1.81 to 4.9 h.

Q: And the AUC(0-t) ([9]; female, Gottingen, minipig, plasma, sc, 12.5 mg, AUC(0-t), Female, Autoinjector, Day 8, individual animals)?
A: Its AUC(0-t) is 2500 ng·h/mL.

Q: What about the AUC(0-t) ([9]; female, Gottingen, minipig, plasma, sc, 12.5 mg, AUC(0-t), Female, Needle/Syringe, Day 1, individual animals) of the same molecule?
A: The AUC(0-t) was 2380 ng·h/mL.

Q: What about the Tmax ([9]; female, Gottingen, minipig, plasma, sc, […], Tmax, Auto injector, Dose Level 12.5, Median value) of the same molecule?
A: The Tmax was 0.25 h.

Q: And the Tmax ([9]; female, Gottingen, minipig, plasma, sc, […], Tmax, Auto injector, Dose Level 12.5, individual animals)?
A: The Tmax was 0.25 h.

Q: And the Tmax ([9]; female, Gottingen, minipig, plasma, sc, […], Tmax, Syringe, Dose Level 12.5, Median value)?
A: The Tmax was 0.25 h.

Q: And the Tmax ([9]; female, Gottingen, minipig, plasma, sc, […], Tmax, Syringe, Dose Level 12.5, individual animals)?
A: Its Tmax is 0.25 h.

Q: And the half-life ([9]; female, Gottingen, minipig, plasma, sc, […], T½, Auto injector, Dose Level 12.5, Mean)?
A: The half-life was 3.71 h.

Q: What about the half-life ([9]; female, Gottingen, minipig, plasma, sc, […], T½, Auto injector, Dose Level 12.5, individual animals) of the same molecule?
A: The half-life was 3.26 h.

Q: And the half-life ([9]; female, Gottingen, minipig, plasma, sc, […], T½, Syringe, Dose Level 12.5, Mean)?
A: Its half-life is 3.39 h.

Q: And the half-life ([9]; female, Gottingen, minipig, plasma, sc, […], T½, Syringe, Dose Level 12.5, individual animals)?
A: The half-life was 2.74 h.

Q: What about the AUC(0-t) ([9]; male, Gottingen, minipig, plasma, sc, 12.5 mg, AUC(0-t), Male, Autoinjector, Day 1, individual animals) of the same molecule?
A: Its AUC(0-t) is 1900 ng·h/mL.

Q: What about the AUC(0-t) ([9]; male, Gottingen, minipig, plasma, sc, 12.5 mg, AUC(0-t), Male, Needle/Syringe, Day 8, individual animals) of the same molecule?
A: Its AUC(0-t) is 2460 ng·h/mL.

Q: What about the concentration at 24 h ([9]; male, Gottingen, minipig, plasma, sc, […], Concentration of Methotrexate in plasma, Males, Autoinjector, 24 h, individual animals, BQL = below quantitation limit 0.200 ng/mL) of the same molecule?
A: The concentration at 24 h was 0.696 ng/mL.

Q: And the Tmax ([9]; male, Gottingen, minipig, plasma, sc, […], Tmax, Auto injector, Dose Level 12.5, Median value)?
A: The Tmax was 0.25 h.

Q: And the Tmax ([9]; male, Gottingen, minipig, plasma, sc, […], Tmax, Auto injector, Dose Level 12.5, individual animals)?
A: The Tmax was 0.25 h.

Q: What about the Tmax ([9]; male, Gottingen, minipig, plasma, sc, […], Tmax, Syringe, Dose Level 12.5, Median value) of the same molecule?
A: Its Tmax is 0.25 h.

Q: And the Tmax ([9]; male, Gottingen, minipig, plasma, sc, […], Tmax, Syringe, Dose Level 12.5, individual animals)?
A: The Tmax was 0.25 h.

Q: What about the half-life ([9]; male, Gottingen, minipig, plasma, sc, […], T½, Auto injector, Dose Level 12.5, Mean) of the same molecule?
A: Its half-life is 1.92 h.

Q: What about the half-life ([9]; male, Gottingen, minipig, plasma, sc, […], T½, Auto injector, Dose Level 12.5, individual animals) of the same molecule?
A: The half-life was 1.95 h.

Q: And the half-life ([9]; male, Gottingen, minipig, plasma, sc, […], T½, Syringe, Dose Level 12.5, individual animals)?
A: Its half-life is 1.91 h.
